Results: patent US20200246317A1, “METHODS OF TREATING DIABETIC NEUROPATHY WITH A THIAZOLINE ANTI-HYPERALGESIC AGENT” (CERSCI THERAPEUTICS, INC., priority 2019, published 2020)

Tested on: streptozotocin (STZ)-induced diabetic rats
Test: Mechanical thresholds in streptozotocin (STZ)-induced diabetic rats
Type: in vivo, rat
Protocol: Experiments were conducted to determine the effect of Compound 1 in streptozotocin (STZ)-induced diabetic rats. In the first experiment, after obtaining mechanical threshold baselines, STZ (50 mg/kg IV) was administered (Day −7). Two days later, blood glucose levels were measured and animals that were hyperglycemic (>250 mg/dL) continued in the study. On Day 0 the baseline for mechanical thresholds prior to dosing with test articles was established for the rats. Compound 1 (10, 30, and 100 mg/kg PO), gabapentin (100 mg/kg PO) or vehicle was then administered daily for 5 days. On Day 0 mechanical thresholds were obtained at 1, 3, and 6 h post-dose. On Day 1 mechanical thresholds were measured immediately prior to dosing and then 3 h post-dose. The same regimen was followed on Day 3.
In a subsequent study, the same STZ paradigm was followed. However, in addition to the 100 mg/kg Compound 1 group, two additional cohorts received the Compound 1 100 mg/kg dose split into two or three doses per day with 50 mg/kg BID and 33 mg/kg TID. In addition to the gabapentin (100 mg/kg PO) group, a separate cohort received duloxetine (30 mg/kg PO). Additionally, in this study mechanical threshold testing was implemented every day immediately prior to dosing and 2 h post-dose for 7 days.

[1] = subsequent study, 7 days, Compound 1 100 mg/kg QD, 50 mg/kg BID, 33 mg/kg TID, gabapentin 100 mg/kg PO, duloxetine 30 mg/kg PO

SMILES	reversal of allodynia (mechanical threshold) [1]	reversal of allodynia (mechanical threshold) (first experiment, Compound 1 10, 30, 100 mg/kg PO, gabapentin 100 mg/kg PO daily, Day 0 (gabapentin: 1 h post-dose on Day 0 and all time points thereafter))
CNCC[C@H](Oc1cccc2ccccc12)c1cccs1 [duloxetine, reference compound]	required successive doses for appreciable activity	
NCC1(CC(=O)O)CCCCC1 [gabapentin, reference compound]	robustly reversed the allodynia throughout the study	significant reversal of allodynia
